Data from ChEMBL document CHEMBL1156694, “In silico screening of HIV-1 non-nucleoside reverse transcriptase and protease inhibitors” (Eur J Med Chem, 2008).

Tests used:
[1] = Inhibition of HIV reverse transcriptase; design: species or system Human immunodeficiency virus
[2] = target: Protease (Human immunodeficiency virus 1, UniProt Q9YQ12); experiment: Inhibition of HIV1 protease
[3] = Inhibition of HIV protease; design: species or system Human immunodeficiency virus

Sequence of Protease (Q9YQ12 whole entry): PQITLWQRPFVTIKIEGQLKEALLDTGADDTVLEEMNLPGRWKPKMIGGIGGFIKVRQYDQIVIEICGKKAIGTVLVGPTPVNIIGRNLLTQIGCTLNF

| SMILES | IC50 [1] | also measured |
| --- | --- | --- |
| Cc1cc(C)c(-n2nnnc2SCC(=O)Nc2ccccc2Cl)c(C)c1 | 5 nM |  |
| CCOC(=O)Cc1nnc(NC(=O)[C@@H](CC)Sc2nnnn2-c2ccccc2)s1 | 50 nM |  |
| C=CCn1c(CSc2nc3ccccc3s2)nnc1SCC(=O)NCc1cccnc1 | < 100000 nM |  |
| Cc1c(O)cccc1C(=O)N[C@@H](Cc1ccccc1)[C@H](O)CN(CC(C)C)S(=O)(=O)c1ccc2ncsc2c1 |  | IC50 [2]: < 10 nM |
| CC(C)(C)OC(=O)N[C@@H](Cc1ccccc1)[C@@H](O)[C@@]1(Cc2ccccc2)NC=C([C@H]2c3ccccc3C[C@@H]2O)C1=O |  | IC50 [3]: 12 nM |
| CC(C)n1nc(COC(N)=O)c(Cc2ccncc2)c1Sc1cc(Cl)cc(Br)c1 | 32 nM |  |
